# According to publication PMC8626775, “Anti-schistosomal activities of quinoxaline-containing compounds: From hit identification to lead optimisation” (European Journal of Medicinal Chemistry, 2021):
# Read-outs that look alike come from different tables or passages of the source.
# Assays:
# S. mansoni schistosomula = S. mansoni schistosomula high-throughput phenotype and motility screen (Roboworm), 72 h; assay type: cell-based, Schistosoma mansoni; conditions: for EC50: Schistosoma mansoni; for Effect on phenotype and motility of S. mansoni schistosomula: primary tested concentrations 10 and 50 μM
# Method: Cercariae derived from the NMRI ([…]) Puerto Rican strain (PR-1) of S. mansoni were shed from two Biomphalaria glabrata strains, the NMRI albino and pigmented outbred strains, under intensified lighting conditions (1 h of incubation at 26 °C). Cercariae were then mechanically transformed into schistosomula as previously described.
# High-throughput screening (HTS) of selected compounds was conducted as previously described. Briefly, newly transformed schistosomula were distributed in a 384-well tissue culture plate (PerkinElmer, cat 6007460, seeding density of 120 parasites/well). Each compound (at a single concentration or two-fold titrations) was transferred into individual wells alongside the positive and negative controls (AUR at 10 μM final concentration in 0.625% DMSO and 0.625% DMSO, respectively). Schistosomula/compound co-cultures were then incubated at 37 °C for 72 h in a humidified atmosphere containing 5% CO2. Following the co-culture period, automatic assessment of compound-induced schistosomula motility and phenotypic changes were conducted with the high-content imaging platform Roboworm using the image analysis model previously described by Paveley et al..
# S. mansoni adult worms = assay: S. mansoni adult worm motility screen (WormassayGP2), 72 h; assay type: cell-based, Schistosoma mansoni
# Text: Mice (Mus musculus HsdOLa:TO - Tuck Ordinary; Envigo, UK) were used for the mammalian-specific propagation of the S. mansoni life cycle. Experimental animals were infected with 4000 or 180 S. mansoni cercariae/mouse and perfused three- or seven-weeks post-infection to obtain S. mansoni juvenile or adult worms, respectively. Preparation steps following perfusion have been described previously. Briefly, the parasite material was washed three times with pre-warmed adult worm media (DMEM (Gibco, Paisley, UK) supplemented with 10% (v/v) Fetal Calf Serum (FCS, Gibco, Paisley, UK), 1% (v/v) L-glutamine (Gibco, Paisley, UK) and an antibiotic mixture (150 Units/ml penicillin and 150 μg/ml streptomycin; Gibco, UK)) to remove residual host contamination and incubated in a humidified environment containing 5% CO2 at 37 °C for at least 1 h.
# For the evaluation of anti-schistosomal activity on the adult stage of the parasite, 7-wk old worms were transferred into 48 well tissue culture plates (1–3 worm pairs/well, in duplicate). […] DMSO (0.5%) and praziquantel (10 μM in 0.5% DMSO) were also included as negative and positive control treatments. Treated adult worms were incubated for 72 h in a humidified environment containing 5% CO2 at 37 °C. Parasite motility after compound treatment was assessed by a digital image processing-based system (WormassayGP2), modified after Wormassay. Following compound-parasite co-incubation, eggs were collected, fixed in formalin (10% v/v formaldehyde) and enumerated aiming to collect further information on any compound-induced effects on parasite fecundity and IVLE production.
# [1] = 72 h, Table 2, motility, 72 h, three replicate titrations (0.313–10 μM), read-out: Activity on schistosomula (EC50, μM - 72 h) M
# [2] = 72 h, Table 2, phenotype, 72 h, three replicate titrations (0.313–10 μM), read-out: Activity on schistosomula (EC50, μM - 72 h) P
# [3] = 72 h, Table S7, motility, 95% CI in brackets, read-out: Activity on schistosomula (EC50, µM - 72 h) (95% CI) M
# [4] = 72 h, Table S7, phenotype, 95% CI in brackets, read-out: Activity on schistosomula (EC50, µM - 72 h) (95% CI) P
# [5] = Table 3, read-out: Anti-schistosomal activity EC50 (μM) Schistosomula Motility
# [6] = Table 3, read-out: Anti-schistosomal activity EC50 (μM) Schistosomula Phenotype
# [7] = 72 h, Table 1, 72 h, two dose response titrations (0.313–10 μM), 95% CI in brackets, read-out: Activity on schistosomula (EC50, μM - 72 h) Motility
# [8] = 72 h, Table 1, 72 h, two dose response titrations (0.313–10 μM), 95% CI in brackets, read-out: Activity on schistosomula (EC50, μM - 72 h) Phenotype
# [9] = Fig. S3, average schistosomula EC50, read-out: EC50 (Fig. S3, anti-schistosomula activity)
# [10] = 72 h, Table 1, mean of phenotype and motility EC50, 72 h, read-out: Activity on schistosomula (EC50, μM - 72 h) Average
# [11] = 72 h, read-out: EC50 on schistosomula (bounds and ranges given)
# [12] = Table 5, Series C, read-out: Anti-schistosomal activity EC50 Schistosomula (μM) Motility
# [13] = Table 5, Series C, read-out: Anti-schistosomal activity EC50 Schistosomula (μM) Phenotype
Compound,EC50 (S. mansoni schistosomula; [7]),EC50 (S. mansoni schistosomula; [8]),EC50 (S. mansoni schistosomula; [9]),Effect on phenotype and motility of S. mansoni schistosomula (S. mansoni schistosomula; 72 h),further results
"O=[N+]([O-])c1ccc2nc(Cl)c(Cl)nc2c1 [2,3-dichloro-6-nitroquinoxaline]",–,–,–,–,EC50 (S. mansoni schistosomula; [1]): > 10 µM; EC50 (S. mansoni schistosomula; [2]): > 10 µM; EC50 (S. mansoni schistosomula; [3]): > 10 µM; EC50 (S. mansoni schistosomula; [4]): > 10 µM; EC50 (S. mansoni schistosomula; [5]): > 10 µM; EC50 (S. mansoni schistosomula; [6]): > 10 µM
"O=[N+]([O-])c1ccc2nc(O)c(O)nc2c1 [6-nitro-2,3-dihydroxy-quinoxaline]",–,–,–,–,EC50 (S. mansoni schistosomula; [1]): > 50 µM; EC50 (S. mansoni schistosomula; [2]): > 50 µM; EC50 (S. mansoni schistosomula; [3]): > 50 µM; EC50 (S. mansoni schistosomula; [4]): > 50 µM; EC50 (S. mansoni schistosomula; [5]): > 50 µM; EC50 (S. mansoni schistosomula; [6]): > 50 µM
Cc1ccc(/N=c2\[nH]c3ccccc3s\c2=N\c2ccc(C)cc2)cc1 [Compound 2],> 50 µM,> 50 µM,> 50 µM,did not have any effect,–
COc1ccc(/N=c2\[nH]c3ccccc3s\c2=N\c2ccc(OC)cc2)cc1 [Compound 3],> 50 µM,> 50 µM,> 50 µM,did not have any effect,–
FC(F)(F)c1cccc(/N=c2\[nH]c3ccccc3s\c2=N\c2cccc(C(F)(F)F)c2)c1 [Compound 4],> 50 µM,> 50 µM,> 50 µM,did not have any effect,–
Cc1ccc2[nH]c(=Nc3ccccc3C)c(=Nc3ccccc3C)[nH]c2c1 [Compound 5],> 10 µM,> 10 µM,–,weak effect,–
COc1ccc2nc(Nc3ccccc3)c(Nc3ccccc3)nc2c1 [Compound 6],> 10 µM,> 10 µM,> 10 µM,weak effect,–
OCc1cccc(N=c2[nH]c3ccccc3[nH]c2=Nc2cccc(CO)c2)c1 [Compound 7],> 10 µM,> 10 µM,–,weak effect,–
COc1ccc(OC)c(Nc2nc3ccccc3nc2Nc2cc(OC)ccc2OC)c1 [Compound 8],> 50 µM,> 50 µM,> 50 µM,did not have any effect,–
CCOc1ccc(Nc2nc3ccccc3nc2Nc2ccc(OCC)cc2)cc1 [Compound 9],4.87 µM,5.92 µM,–,–,Activity on schistosomula in the primary screen at 10 μM (S. mansoni schistosomula; 72 h): retained activity; EC50 (S. mansoni schistosomula; [10]): 5.39 µM
CCOC(=O)c1ccc(Nc2nc3ccccc3nc2Nc2ccc(C(=O)OCC)cc2)cc1 [Compound 10],5.83 µM,5.12 µM,–,–,Activity on schistosomula in the primary screen at 10 μM (S. mansoni schistosomula; 72 h): retained activity; EC50 (S. mansoni schistosomula; [10]): 5.47 µM
FC(F)(F)c1cccc(Nc2nc3ccccc3nc2Nc2cccc(C(F)(F)F)c2)c1 [Compound 11],1.12 µM,1.38 µM,–,–,"Effect on adult worm motility at 3.15 μM (S. mansoni adult worms; 3.15 μM, lowest concentration tested): complete cessation of worm mobility; Effect on adult worm motility at 12.5 and 6.25 μM (S. mansoni adult worms): particularly active; Activity on schistosomula in the primary screen at 10 μM (S. mansoni schistosomula; 72 h): retained activity; EC50 (S. mansoni schistosomula; [10]): 1.25 µM"
FC(F)(F)c1cccc(Oc2nc3ccccc3nc2Oc2cccc(C(F)(F)F)c2)c1 [Compound 12],> 10 µM,> 10 µM,> 10 µM,weak effect,–
Fc1ccccc1Nc1nc2ccccc2nc1Nc1ccccc1F [Compound 13],> 10 µM,> 10 µM,–,weak effect,–
Cc1ccc(Sc2nc3ccccc3nc2Sc2ccc(C)cc2)cc1 [Compound 14],> 50 µM,> 50 µM,> 50 µM,did not have any effect,–
Cc1ccc(Nc2nc3ccccc3nc2Nc2ccc(C)cc2)cc1 [Compound 15],> 10 µM,> 10 µM,> 10 µM,weak effect,–
Cc1ccc(Nc2nc3ccccc3nc2Nc2ccc(C)c(C)c2)cc1C [Compound 16],3.69 µM,5.42 µM,–,–,Effect on adult worm motility at 12.5 and 6.25 μM (S. mansoni adult worms): particularly active; Activity on schistosomula in the primary screen at 10 μM (S. mansoni schistosomula; 72 h): retained activity; EC50 (S. mansoni schistosomula; [10]): 4.55 µM
Cc1ccc(Nc2nc3ccccc3nc2Nc2ccc(C)c(Cl)c2)cc1Cl [Compound 17],2.45 µM,2.88 µM,–,–,Activity on schistosomula in the primary screen at 10 μM (S. mansoni schistosomula; 72 h): retained activity; EC50 (S. mansoni schistosomula; [10]): 2.66 µM; EC50 (S. mansoni schistosomula; [11]): 1 to 2 µM
c1ccc(-c2nc3ccccc3nc2-c2ccccc2)cc1 [Compound 18],> 10 µM,> 10 µM,–,weak effect,–
Cc1cccc(Nc2nc3ccc([N+](=O)[O-])cc3nc2Nc2cccc(C)c2)c1 [Compound 20],1.23 µM,1.62 µM,–,–,Effect on adult worm motility at 12.5 and 6.25 μM (S. mansoni adult worms): particularly active; Activity on schistosomula in the primary screen at 10 μM (S. mansoni schistosomula; 72 h): retained activity; EC50 (S. mansoni schistosomula; [10]): 1.42 µM
"Clc1ccc(Nc2nc3ccc(N4CCCC4)cc3nc2Nc2ccc(Cl)c(Cl)c2)cc1Cl [Compound 22b, N^2, N^3-bis(3,4-dichlorophenyl)-6-(pyrrolidin-1-yl)quinoxaline-2,3-diamine]",–,–,–,–,"Activity on schistosomula in the primary screen at 50 μM (S. mansoni schistosomula; 50 μM, 72 h): affected schistosomula motility, but not phenotype; EC50 (S. mansoni schistosomula; [1]): > 10 µM; EC50 (S. mansoni schistosomula; [2]): > 10 µM; EC50 (S. mansoni schistosomula; [3]): > 10 µM; EC50 (S. mansoni schistosomula; [4]): > 10 µM; EC50 (S. mansoni schistosomula; [12]): > 10 µM; EC50 (S. mansoni schistosomula; [13]): > 10 µM"
"O=C(Nc1ccc2nc(Nc3ccc(Cl)c(Cl)c3)c(Nc3ccc(Cl)c(Cl)c3)nc2c1)C1CCCCC1 [Compound 22e, N-(2,3-bis((3,4-dichlorophenyl)amino)quinoxalin-6-yl)cyclohexanecarboxamide]",–,–,–,–,EC50 (S. mansoni schistosomula; [1]): > 50 µM; EC50 (S. mansoni schistosomula; [2]): > 50 µM; EC50 (S. mansoni schistosomula; [3]): > 50 µM; EC50 (S. mansoni schistosomula; [4]): > 50 µM; EC50 (S. mansoni schistosomula; [12]): > 50 µM; EC50 (S. mansoni schistosomula; [13]): > 50 µM
"O=C(Nc1ccc2nc(Nc3ccc(Cl)c(Cl)c3)c(Nc3ccc(Cl)c(Cl)c3)nc2c1)c1cccc(C(F)(F)F)c1 [Compound 22g, N-(2,3-bis((3,4-dichlorophenyl)amino)quinoxalin-6-yl)-3-(trifluoromethyl)benzamide]",–,–,–,–,EC50 (S. mansoni schistosomula; [1]): > 50 µM; EC50 (S. mansoni schistosomula; [2]): > 50 µM; EC50 (S. mansoni schistosomula; [3]): > 50 µM; EC50 (S. mansoni schistosomula; [4]): > 50 µM; EC50 (S. mansoni schistosomula; [12]): > 50 µM; EC50 (S. mansoni schistosomula; [13]): > 50 µM
COC(=O)c1ccc(Nc2nc3ccc([N+](=O)[O-])cc3nc2Nc2ccc(C(=O)OC)cc2)cc1 [Compound 23],1.44 µM,1.23 µM,–,–,Effect on adult worm motility at 12.5 and 6.25 μM (S. mansoni adult worms): particularly active; Activity on schistosomula in the primary screen at 10 μM (S. mansoni schistosomula; 72 h): retained activity; EC50 (S. mansoni schistosomula; [10]): 1.33 µM
O=C(O)C=Cc1cccc(Nc2nc3ccc([N+](=O)[O-])cc3nc2Nc2cccc(C=CC(=O)O)c2)c1 [Compound 24],> 10 µM,> 10 µM,–,weak effect,–
"Cc1cccc(Nc2nc3ccc([N+](=O)[O-])cc3nc2Nc2cccc(C)c2C)c1C [Compound 27, N2, N3-bis(2,3-dimethylphenyl)-6-nitroquinoxaline-2,3-diamine]",–,–,–,–,"EC50 (S. mansoni schistosomula; [1]): > 10 µM; EC50 (S. mansoni schistosomula; [2]): > 10 µM; EC50 (S. mansoni schistosomula; [3]): > 10 µM; EC50 (S. mansoni schistosomula; [4]): > 10 µM; EC50 (S. mansoni schistosomula; [11]): > 10 µM; EC50 (S. mansoni schistosomula; Table 4, Series A, read-out: Anti-schistosomal activity EC50 Schistosomula (μM) Motility): > 10 µM; EC50 (S. mansoni schistosomula; Table 4, Series A, read-out: Anti-schistosomal activity EC50 Schistosomula (μM) Phenotype): > 10 µM"
